The supplement of paper PMC10627819

Tests used:
[1] = test system: B. subtilis 168; test: Bliss interaction score (quartile over a dose matrix) (fitness difference); higher = more antagonism (negative = synergy)
How it was run: (§1)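 Fitness here means normalised growth, inferred for single drugs from the combination data. Growth was OD595 at entry into stationary phase, divided by the plate's robust no-drug mean and capped at 1. The Bliss score is observed minus expected fitness, with the expectation being the product, and its quartiles span technical, biological and donor/recipient replicates.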

[2] = test system: S. aureus Newman; test: as above
How it was run: as §1

[3] = test system: S. pneumoniae D39V; test: as above
How it was run: as §1

[4] = test system: S. aureus DSM 20231; test: as above
How it was run: as §1

[5] = test system: B. subtilis 168; test: fitness (endpoint OD595 vs no drug) (fraction); higher = more growth
How it was run: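 Bacterial growth was followed in 384-well plates seeded at OD595 0.01, with 30 µl per well, or 55 µl for S. pneumoniae, in TSB, LB Lennox or CY at 37 °C. OD595 was read every 30 min for 14 h, and each reading had the first reading subtracted as background. Fitness is the background-corrected optical density at entry into stationary phase divided by the robust mean of the no-drug control wells. This ratio is capped at 1.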
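Throughout, for Bliss interaction score (quartile over a dose matrix): first quartile when negative (synergy) and third quartile when positive (antagonism).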

CO[C@@H]1[C@@H](OC(N)=O)[C@@H](O)[C@H](Oc2ccc3c(O)c(NC(=O)c4ccc(O)c(CC=C(C)C)c4)c(=O)oc3c2C)OC1(C)C [Novobiocin] + CC1=C\[C@@H](O)CC(=O)Cc2nc(co2)C(=O)N2CCC=C2C(=O)O[C@H](C(C)C)[C@H](C)/C=C/C(=O)NC\C=C\1 [Virginiamycin M1]
Details | Bliss interaction score
[1] | 0.0734
[2] | 0.0284
[3] | 0.108
[4] | 0.0833

fitness, [5]
Details | first compound 0.0125 µg/mL | first compound 0.025 µg/mL | first compound 0.05 µg/mL
partner 0.0625 µg/mL | 0.925 | 0.987 | 0.97
partner 0.125 µg/mL | 0.942 | 0.954 | 0.948
partner 0.25 µg/mL | 0.922 | 0.997 | 0.937

fitness, [5], one replicate
Details | first compound 0.125 µg/mL | first compound 0.25 µg/mL | first compound 0.5 µg/mL
partner 0.0625 µg/mL | 0.967 | 0.867 | 0.58
partner 0.125 µg/mL | 0.973 | 0.875 | 0.571
partner 0.25 µg/mL | 0.927 | 0.884 | 0.561

CO[C@@H]1[C@@H](OC(N)=O)[C@@H](O)[C@H](Oc2ccc3c(O)c(NC(=O)c4ccc(O)c(CC=C(C)C)c4)c(=O)oc3c2C)OC1(C)C [Novobiocin] + CCN(CC)CCOC(=O)c1ccc(N)cc1 [Procaine]
Details | Bliss interaction score
[1] | 0.0449
[2] | 0.0326
[3] | -0.109
[4] | 0.0431

fitness, [5]
Details | first compound 0.0125 µg/mL | first compound 0.025 µg/mL | first compound 0.05 µg/mL
partner 85.5 µg/mL | 0.915 | 0.973 | 0.863
partner 171 µg/mL | 0.921 | 0.974 | 0.865
partner 342 µg/mL | 0.898 | 0.884 | 0.87

fitness, [5], one replicate
Details | first compound 0.125 µg/mL | first compound 0.25 µg/mL | first compound 0.5 µg/mL
partner 85.5 µg/mL | 0.905 | 0.822 | 0.543
partner 171 µg/mL | 0.856 | 0.821 | 0.562
partner 342 µg/mL | 0.866 | 0.784 | 0.638

CO[C@@H]1[C@@H](OC(N)=O)[C@@H](O)[C@H](Oc2ccc3c(O)c(NC(=O)c4ccc(O)c(CC=C(C)C)c4)c(=O)oc3c2C)OC1(C)C [Novobiocin] + CN1C2=CC=CC=C2N=C3C1=CC=CC3=O [Pyocyanin]
Details | Bliss interaction score
[1] | -0.137
[2] | 0.0744
[3] | 0.116
[4] | 0.044

fitness, [5]
Details | first compound 0.0125 µg/mL | first compound 0.025 µg/mL | first compound 0.05 µg/mL
partner 1.25 µg/mL | 0.881 | 0.916 | 0.929
partner 2.5 µg/mL | 0.847 | 0.827 | 0.858
partner 5 µg/mL | 0.733 | 0.71 | 0.749

fitness, [5], one replicate
Details | first compound 0.125 µg/mL | first compound 0.25 µg/mL | first compound 0.5 µg/mL
partner 1.25 µg/mL | 0.837 | 0.701 | 0.13
partner 2.5 µg/mL | 0.788 | 0.441 | 0.0992
partner 5 µg/mL | 0.454 | 0.229 | 0.164

CO[C@@H]1[C@@H](OC(N)=O)[C@@H](O)[C@H](Oc2ccc3c(O)c(NC(=O)c4ccc(O)c(CC=C(C)C)c4)c(=O)oc3c2C)OC1(C)C [Novobiocin] + CN(C)c1cc(NC(=O)CNC(C)(C)C)c(O)c2c1C[C@H]1C[C@H]3[C@H](N(C)C)C(O)=C(C(N)=O)C(=O)[C@@]3(O)C(O)=C1C2=O [Tigecycline]
Details | Bliss interaction score
[1] | 0.034
[2] | 0.03
[3] | 0.0803
[4] | 0.079

fitness, [5]
Details | first compound 0.0125 µg/mL | first compound 0.025 µg/mL | first compound 0.05 µg/mL
partner 0.039 µg/mL | 0.971 | ≥ 1 | ≥ 1
partner 0.078 µg/mL | 0.952 | 0.986 | 0.977
partner 0.156 µg/mL | 0.937 | 0.964 | 0.947

fitness, [5], one replicate
Details | first compound 0.05 µg/mL | first compound 0.1 µg/mL | first compound 0.125 µg/mL | first compound 0.2 µg/mL | first compound 0.25 µg/mL | first compound 0.5 µg/mL
partner 0.039 µg/mL | – | – | 0.893 | – | 0.888 | 0.501
partner 0.078 µg/mL | – | – | 0.924 | – | 0.818 | 0.508
partner 0.125 µg/mL | ≥ 1 | ≥ 1 | – | ≥ 1 | – | –
partner 0.156 µg/mL | – | – | 0.866 | – | 0.77 | 0.607
partner 0.25 µg/mL | 0.943 | 0.95 | – | ≥ 1 | – | –
partner 0.5 µg/mL | 0.953 | ≥ 1 | – | 0.999 | – | –

CO[C@@H]1[C@@H](OC(N)=O)[C@@H](O)[C@H](Oc2ccc3c(O)c(NC(=O)c4ccc(O)c(CC=C(C)C)c4)c(=O)oc3c2C)OC1(C)C [Novobiocin] + CN(N=O)C(=O)N[C@@H](C=O)[C@@H](O)[C@H](O)[C@H](O)CO [Streptozotocin]
Details | Bliss interaction score
[1] | 0.0669
[2] | 0.0508
[3] | -0.105
[4] | 0.0969

fitness, [5], one replicate
Details | first compound 0.0125 µg/mL | first compound 0.025 µg/mL | first compound 0.05 µg/mL | first compound 0.125 µg/mL | first compound 0.25 µg/mL | first compound 0.5 µg/mL
partner 0.15 µg/mL | 0.914 | ≥ 1 | 0.877 | 0.869 | 0.925 | 0.516
partner 0.3 µg/mL | 0.982 | ≥ 1 | ≥ 1 | 0.858 | 0.839 | 0.516
partner 0.6 µg/mL | 0.993 | ≥ 1 | 0.945 | ≥ 1 | 0.871 | 0.504

CO[C@@H]1[C@@H](OC(N)=O)[C@@H](O)[C@H](Oc2ccc3c(O)c(NC(=O)c4ccc(O)c(CC=C(C)C)c4)c(=O)oc3c2C)OC1(C)C [Novobiocin] + CN[C@@H]1[C@H](O)[C@H](NC)[C@H]2O[C@@]3(O)C(=O)C[C@@H](C)O[C@H]3O[C@@H]2[C@H]1O [Spectinomycin]
Details | Bliss interaction score
[1] | 0.075
[2] | 0.0698
[3] | -0.0939
[4] | 0.0538

fitness, [5]
Details | first compound 0.0125 µg/mL | first compound 0.025 µg/mL | first compound 0.05 µg/mL
partner 2 µg/mL | 0.949 | 0.929 | 0.971
partner 4 µg/mL | 0.967 | 0.948 | ≥ 1
partner 8 µg/mL | 0.949 | 0.924 | 0.944

fitness, [5], one replicate
Details | first compound 0.125 µg/mL | first compound 0.25 µg/mL | first compound 0.5 µg/mL
partner 2 µg/mL | 0.898 | 0.779 | 0.526
partner 4 µg/mL | 0.945 | 0.867 | 0.649
partner 8 µg/mL | 0.963 | 0.957 | 0.577

CO[C@@H]1[C@@H](OC(N)=O)[C@@H](O)[C@H](Oc2ccc3c(O)c(NC(=O)c4ccc(O)c(CC=C(C)C)c4)c(=O)oc3c2C)OC1(C)C [Novobiocin] + CN[C@@H]1[C@H](O[C@H]2[C@H](O[C@H]3[C@H](O)[C@@H](O)[C@H](N=C(N)N)[C@@H](O)[C@@H]3N=C(N)N)O[C@@H](C)[C@]2(O)C=O)O[C@@H](CO)[C@H](O)[C@H]1O [Streptomycin]
Details | Bliss interaction score
[1] | 0.133
[2] | -0.172
[3] | 0.0562
[4] | -0.111

fitness, [5]
Details | first compound 0.0125 µg/mL | first compound 0.025 µg/mL | first compound 0.05 µg/mL
partner 2 µg/mL | 0.967 | ≥ 1 | 0.938
partner 4 µg/mL | – | 0.725 | 0.873
partner 8 µg/mL | 0.0452 | 0.0379 | 0.0344

fitness, [5], one replicate
Details | first compound 0.125 µg/mL | first compound 0.25 µg/mL | first compound 0.5 µg/mL
partner 2 µg/mL | 0.926 | 0.843 | 0.592
partner 4 µg/mL | 0.928 | 0.836 | 0.537
partner 8 µg/mL | 0.135 | 0.044 | 0.0121

CO[C@@H]1[C@@H](OC(N)=O)[C@@H](O)[C@H](Oc2ccc3c(O)c(NC(=O)c4ccc(O)c(CC=C(C)C)c4)c(=O)oc3c2C)OC1(C)C [Novobiocin] + COc1cc(Cc2cnc(N)nc2N)cc(OC)c1OC [Trimethoprim]
Details | Bliss interaction score
[1] | 0.136
[2] | 0.0627
[3] | 0.0635
[4] | 0.134

fitness, [5]
Details | first compound 0.0125 µg/mL | first compound 0.025 µg/mL | first compound 0.05 µg/mL | first compound 0.1 µg/mL | first compound 0.2 µg/mL
partner 0.25 µg/mL | – | – | – | – | 0.754
partner 0.5 µg/mL | 0.566 | 0.525 | 0.502 | 0.492 | 0.554

[5], one replicate
Details | fitness
first compound 0.0125 µg/mL, partner 1 µg/mL | 0.471
first compound 0.0125 µg/mL, partner 2 µg/mL | 0.386
first compound 0.025 µg/mL, partner 1 µg/mL | 0.451
first compound 0.025 µg/mL, partner 2 µg/mL | 0.386
first compound 0.05 µg/mL, partner 0.1 µg/mL | 0.947
first compound 0.05 µg/mL, partner 0.125 µg/mL | 0.759
first compound 0.05 µg/mL, partner 0.2 µg/mL | 0.794
first compound 0.05 µg/mL, partner 0.4 µg/mL | 0.546
first compound 0.05 µg/mL, partner 1 µg/mL | 0.521
first compound 0.05 µg/mL, partner 2 µg/mL | 0.354
first compound 0.1 µg/mL, partner 0.1 µg/mL | ≥ 1
first compound 0.1 µg/mL, partner 0.125 µg/mL | 0.77
first compound 0.1 µg/mL, partner 0.2 µg/mL | 0.797
first compound 0.1 µg/mL, partner 0.4 µg/mL | 0.52
first compound 0.125 µg/mL, partner 0.125 µg/mL | 0.835
first compound 0.125 µg/mL, partner 0.25 µg/mL | 0.56
first compound 0.125 µg/mL, partner 0.5 µg/mL | 0.479
first compound 0.2 µg/mL, partner 0.1 µg/mL | 0.978
first compound 0.2 µg/mL, partner 0.125 µg/mL | 0.757
first compound 0.2 µg/mL, partner 0.2 µg/mL | 0.826
first compound 0.2 µg/mL, partner 0.4 µg/mL | 0.474
first compound 0.25 µg/mL, partner 0.125 µg/mL | 0.565
first compound 0.25 µg/mL, partner 0.25 µg/mL | 0.459
first compound 0.25 µg/mL, partner 0.5 µg/mL | 0.45
first compound 0.5 µg/mL, partner 0.125 µg/mL | 0.424
first compound 0.5 µg/mL, partner 0.25 µg/mL | 0.376
first compound 0.5 µg/mL, partner 0.5 µg/mL | 0.406
